Data as given in article PMC9031298, “Enhanced In Vitro Antiviral Activity of Hydroxychloroquine Ionic Liquids against SARS-CoV-2” (Pharmaceutics, 2022).
pEC50: −log10 of the molar value. Structures can show the parent of a compound that is named as a salt. Where two headings read alike, the source gives them in different places.

Legend:
Vero E6 cells [1] = test system: Vero E6 cells
[2] = cited from earlier work
[3] = Critical micelle concentration by ionic conductivity; format: physicochemical; conditions: 20 °C, water
Method: The critical micelle concentrations of the HCQ-ILs with surfactant-like anions were calculated using ionic conductivity measurements. A Crison Basic 30+ Radiometer Analytical conductivity meter was used to measure the ionic conductivities (μS/cm) of surfactant solutions in a glass cell at 20 °C containing a magnetic stirrer. For this method, a known amount of Milli-Q water was placed in a thermostated glass cell and the surfactant solution of known concentration was progressively added using a micropipette under constant stirring. Each conductivity value was measured at least three times.
The ability to form micelles of the lipophilic HCQ-ILs [DocSO3] (5) and [C12SO4] (8) was studied by ionic conductivity measurements. The inherent ability of these HCQ-ILs to self-aggregate into micelles can render adequate drug delivery properties. […] The critical micelle concentration (cmc) values, calculated by resolving both equations, are given in Table 3, alongside the cmc values for the starting halide salts (Na[DocSO3] and [C12SO4]).

[4] = Octanol–water partition coefficient (Kow, Log P) by UV–Vis; conditions: logarithm of Kow, ca. 1 mg/mL, triplicate
[5] = Water solubility by stepwise addition of water until visual dissolution; conditions: double-distilled water, 37 °C; for Water Solubility: visual inspection; for solubility: water, thermodynamic from solid
Vero E6 cells [6] = experiment: Cell viability assay (CellTiter-Glo), cytotoxicity; conditions: non-infected Vero E6 cells, 72 h, mean of three experiments
SARS-CoV-2 [7] = conditions: for pEC50: read-out: EC50, inhibition of virus-induced CPE; for EC90: read-out: EC90, inhibition of virus-induced CPE; for inhibition of CPE: at 10 μM, Vero E6, 72 hpi
SARS-CoV-2 [8] = experiment: microbe, parasite or virus in culture; format: cell-based; conditions: for pEC50 / EC90: TCID50 assay; for pEC50: three experiments, read-out: EC50, inhibition of production of infectious progeny viruses; for EC90: read-out: EC90, inhibition of production of infectious progeny viruses
SARS-CoV-2 [9] = experiment: microbe, parasite or virus in culture; format: cell-based; conditions: for pEC50 / EC90: qRT-PCR; for pEC50: four experiments, read-out: EC50, inhibition of vRNA transcription; for EC90: read-out: EC90, inhibition of vRNA transcription; for inhibition of vRNA transcription: at 16.7 μM, 48 hpi
[10] = Cell viability assay (CellTiter-Glo), cytotoxicity; conditions: African green monkey, Vero E6 cells (non-infected), CC50, non-infected Vero E6 cells, mean of three experiments
SARS-CoV-2 [11] = experiment: microbe, parasite or virus in culture; conditions: Severe acute respiratory syndrome coronavirus 2, Vero C1008, read-out: EC90, inhibition of virus-induced CPE, Vero E6 cells, 100 TCID50, 72 hpi
[12] = Severe acute respiratory syndrome coronavirus 2, Vero C1008, Vero E6, 48 hpi
[13] = Vero E6 cells, 100 TCID50, 72 hpi

## Cc1ccc(S(=O)(=O)[O-])cc1.[Na+] [7a]
Vero E6 cells [1]
  CC50: > 400 µM

## CCCCC(CC)COC(=O)CC(C(=O)OCC(CC)CCCC)S(=O)(=O)[O-].[Na+] (centres unmarked) [5a]
[2]
  Reference cmc (25 °C): 5.0 × 10^−3 [71] M
[3]
  cmc: 1540 µM

## CC1(C)C2CC[C@@]1(CS(=O)(=O)[O-])C(=O)C2.[Na+] [6a]
Vero E6 cells [1]
  CC50: 142 µM

## CC1(C)C2CC[C@@]1(CS(=O)(=O)O)C(=O)C2.CC1(C)C2CC[C@@]1(CS(=O)(=O)O)C(=O)C2.CCN(CCO)CCCC(C)Nc1ccnc2cc(Cl)ccc12 (centres unmarked) [compound 6]
[4]
  Log P: −1.16
[5]
  Water Solubility: 2020 mg/mL

## CCCCC(CC)COC(=O)CC(C(=O)OCC(CC)CCCC)S(=O)(=O)O.CCCCC(CC)COC(=O)CC(C(=O)OCC(CC)CCCC)S(=O)(=O)O.CCN(CCO)CCCC(C)Nc1ccnc2cc(Cl)ccc12 (centres unmarked) [compound 5, N^4-(7-chloroquinolin-4-yl)-N^1-ethyl-N^1-(2-hydroxyethyl)pentane-1,4-diaminium bis(1,4-bis((2-ethylhexyl)oxy)-1,4-dioxobutane-2-sulfonate)]
[4]
  Log P: 1.24
[3]
  cmc: 1.79 µM
Vero E6 cells [6]
  CC50: 69.8 µM
[5]
  Water Solubility: <0.5 mg/mL
SARS-CoV-2 [7]
  SI (CC50/EC50), CPE inhibition: 7.8
  pEC50: 5.05
  EC90: 20.9 µM

## CCCCCCS(=O)(=O)O [4a]
Vero E6 cells [1]
  CC50: > 400 µM

## CCN(CCO)CCCC(C)Nc1ccnc2cc(Cl)ccc12.O=C(O)[C@@H](O)[C@H](O)[C@@H](O)[C@@H](O)CO.O=C(O)[C@@H](O)[C@H](O)[C@@H](O)[C@@H](O)CO [compound 9, N^4-(7-chloroquinolin-4-yl)-N^1-ethyl-N^1-(2-hydroxyethyl)pentane-1,4-diaminium bis((2S,3R,4S,5S)-2,3,4,5,6-pentahydroxyhexanoate)]
[4]
  Log P: −1.39
SARS-CoV-2 [8]; Vero E6, 48 hpi
  pEC50: 4.77
  EC90: 22.5 µM
SARS-CoV-2 [8]; at 16.7 μM, 48 hpi
  inhibition of production of infectious progeny: 56.5%
Vero E6 cells [6]
  CC50: 196 µM
[5]
  Water Solubility: 1230 mg/mL
SARS-CoV-2 [7]
  pEC50: 5.07
  EC90: > 25 µM
SARS-CoV-2 [9]; Vero E6, 48 hpi
  pEC50: 4.79
  EC90: 23.1 µM
SARS-CoV-2 [9]
  inhibition of vRNA transcription: 55.8%

## CCN(CCO)CCCC(C)Nc1ccnc2cc(Cl)ccc12 (centres unmarked) [compound 1, hydroxychloroquine sulfate, reference compound]
[4]
  Log P: −2.25
SARS-CoV-2 [8]; [12]
  pEC50: 4.66
  EC90: 24.3 µM
[10]
  CC50 at 72 h: 214 µM
SARS-CoV-2 [11]
  EC90: 23 µM
SARS-CoV-2 [7]
  inhibition of CPE: lower than 20%
SARS-CoV-2 [7]; [13]
  pEC50: 4.78
SARS-CoV-2 [9]; [12]
  pEC50: 4.73
  EC90: 25.1 µM
SARS-CoV-2 [9]
  inhibition of vRNA transcription: 34.0%

## CCCCCCCCCCCCOS(=O)(=O)[O-].[Na+] [8a, reference compound]
[2]
  Reference cmc (25 °C): 8.0 × 10^−3 [72] M
[3]
  cmc: 9600 µM

## CCN(CCO)CCCC(C)Nc1ccnc2cc(Cl)ccc12.Cc1ccc(S(=O)(=O)O)cc1.Cc1ccc(S(=O)(=O)O)cc1 (centres unmarked) [compound 7, N^4-(7-chloroquinolin-4-yl)-N^1-ethyl-N^1-(2-hydroxyethyl)pentane-1,4-diaminium bis(4-methylbenzenesulfonate)]
[4]
  Log P: −1.12
Vero E6 cells [6]
  CC50: 207 µM
[5]
  solubility: 1400 mg/mL
SARS-CoV-2 [7]; [13]
  pEC50: 4.82
  EC90: 21.1 µM

## O=C([O-])[C@H](O)[C@@H](O)[C@H](O)[C@H](O)CO.[Na+] [9a]
Vero E6 cells [1]
  CC50: > 400 µM

## CCCCCCCCCCCCS(=O)(=O)O.CCCCCCCCCCCCS(=O)(=O)O.CCN(CCO)CCCC(C)Nc1ccnc2cc(Cl)ccc12 (centres unmarked) [compound 8, N^4-(7-chloroquinolin-4-yl)-N^1-ethyl-N^1-(2-hydroxyethyl)pentane-1,4-diaminium bis(dodecane-1-sulfonate)]
[4]
  Log P: 1.01
[3]
  cmc: 4.83 µM
[5]
  Water Solubility: <0.5 mg/mL
SARS-CoV-2 [7]
  pEC50: 4.80
  EC90: 23.8 µM

## CCN(CCO)CCC[C@H](C)Nc1ccnc2cc(Cl)ccc12 [compound 6]
Vero E6 cells [6]
  CC50: 73.2 µM
SARS-CoV-2 [7]
  EC90: > 25 µM

## CCN(CCO)CCCC(C)Nc1ccnc2cc(Cl)ccc12.CS(=O)(=O)O.CS(=O)(=O)O (centres unmarked) [compound 3, N^4-(7-chloroquinolin-4-yl)-N^1-ethyl-N^1-(2-hydroxyethyl)pentane-1,4-diaminium bis(methanesulfonate)]
[4]
  Log P: −0.22
SARS-CoV-2 [8]; Vero E6, 48 hpi
  pEC50: 4.66
  EC90: 24.4 µM
Vero E6 cells [6]
  CC50: 219 µM
[5]
  solubility: 1800 mg/mL
SARS-CoV-2 [7]
  inhibition of CPE: 70.5%
SARS-CoV-2 [7]; [13]
  pEC50: 5.09
  EC90: > 25 µM
SARS-CoV-2 [9]; Vero E6, 48 hpi
  pEC50: 4.77
  EC90: 23.4 µM
SARS-CoV-2 [9]
  inhibition of vRNA transcription: 48.5%

## CS(=O)(=O)[O-].[K+] [3a, potassium methanesulfonate]
Vero E6 cells [1]
  CC50: > 400 µM
